In patent publication US11464840B2, “Universal non-classical MHC I vaccines: HLA-E-restricted antigenic peptides as universal vaccines to treat allergy, inflammation, autoimmune and infectious diseases, and cancers” (priority 2019, dated 2022):
Where “and” joins values, the source holds several entries; their conditions need not be identical. Equal values may be shown once. Ends that are not written are not given here.

What was measured:
Derlin-1 mRNA [1] = test: Derlin-1 mRNA knockdown by siRNA in monocyte-derived dendritic cells (qPCR, ΔΔCt); format: cell-based, human; conditions: MODC
Description: (§1) Table 1: Summary of Derlin-1 Knockdowns with Various siRNAs. Cells transfected in 12 well plate at 60%-80% confluency. one ul Viromer blue was used per 1 ml final volume. Cells were lysed via centrifugation and resuspended in TRI reagent at time points of either 6 h, 24 h, and 48 h. Lysates were split for both protein verification and qPCR. Knockdowns are estimated using the ΔΔCt method. […] Anti-Derlin-1 siRNA was designed using MITs website (sirna.wi.mit.edu) and siRNA design software (dharmacon.horizondiscovery.com/rnai/sirna). SiRNA were chosen based on the criteria that they would bind no more than 15 nucleotides on off-target mRNA and that they would be capable of knockdown for all four of the Derlin-1 mRNA isoforms. Additionally, siRNAs with 40-60% GC content, no more than 3 identical nucleotides in a row, and 3′ UU overhangs were used. The first siRNA (SEQ ID NO: 65, 5′-[…]-3′) was purchased from TriLink Biotechnologies and the second (SEQ ID NO: 66, 5′-[…]-3′) was purchased from Horizon Discovery. A third, modified siRNA with sequence 5′-SEQ ID NO: 67, O′me/G/O′me/[…]-3′ and DNA bases on the 1st and 8th nucleotide of the antisense strand was also designed and purchased from Horizontal Discovery. Scramble siRNAs were purchased from Horizontal Discovery (D-001810-10-05, ON-TARGET plus Non-targeting Pool).
Derlin-1 forms an integral part of the […] machinery required for transporting classical MHCI, e.g., HLA-A, -B, -C for proteasome degradation. […] In contrast, the protein band of Derlin-1 is entirely missing in Derlin-1 siRNA-treated MoDCs. Transfection of the primary cells were performed using PEI reagents (Viromer Blue vs. Viromer Red). The embodiment of the invention is three-fold. One aspect of the embodiment resides in treating APC with Derlin-1 RNA interference to prevent the generation of endogenous leader peptide as well as to cause dissociation of the HLA-E bound endogenous leader peptides so that Derlin-1-treated APC can be fully loaded with the HLA-E vaccines in the presence of the second costimulatory signal for immune induction.

Derlin-1 mRNA [2] = test: Derlin-1 mRNA knockdown by siRNA in T2 cells (qPCR, ΔΔCt); format: cell-based, human
Description: as §1, with “Pool). […]” for “Pool).”

HLA-E [3] = test: Upregulation of surface HLA-E by peptide nonamers in TAP-deficient T2 cells (FACS); format: cell-based, human; conditions: overnight incubation with peptide
Description: FIG. 3. Upregulation of surface HLA-E by peptide nonamers. Screening 9-mers of IgE epitope that were able to induce surface HLA-E expression in tap deficient T2 cells. T2 cells were cultured overnight in present of Panel A: A2 leader peptide-SEQ ID NO: 51, […]) or IgE epitope, B5 (SEQ ID NO: 52, […]), B6 (SEQ ID NO: 53, […]), B8 (SEQ ID NO: 54, […]) and B9 (SEQ ID NO: 55, […]), SP4 (SEQ ID NO: 56, […]), SP7 (SEQ ID NO: 57, […]) and SP11 (SEQ ID NO: 58, […]), and Panel B: IgE epitope of Mixture1 (SEQ ID NO: 59, […], […], […], […] and […]), Mixture2 (SEQ ID NO: 60: […], […], […], […] and […]), and Mixture 3 (SEQ ID NO: 61, […], SGYTPGTIN, […], […] and TINITWLED) at the concentration of 100 μg/ml. Cells were then collected and stained with PE conjugated HLA E followed by FACS flow cytometry analysis.
FIG. 12. Screening of IgE epitope 9-mer which can induce surface HLA-E expression in TAP-deficient T2 cells. Peptide E33 ([…], SEQ ID NO: 68) was predicted by Ige Predict program. T2 cells (2.5×10^5 cells/well) were cultured in the presence of E33 peptide or HLA-A2 leader peptide (10 μg/mL) in 96-well cell culture plate for overnight. Cell were collected and stained with PE anti-human HLA-E antibody followed by flow cytometric analysis (Panel A). […]

HLA-E [4] = test: ELISA of renatured HLA-E binding to biotinylated leader peptide (C3N); set-up: species or system human
Description: FIG. 2. […] ELISA for the interaction of denatured HLA-E or covalent HLA-E-β2 microglobulin fusion protein with biotinylated HLA-A2 leader peptide. 10 μg of denatured recombinant HLAE-β2 microglobulin fusion protein, or denatured HLA-E incubated with biotinylated A2 leader peptide (SEQ ID NO: 50, […]) with or without 10 μg β2 microglobulin in 50 μl buffer A (0.5 mM-Tris pH at 6.6) at 18° C. for two days. The complexes were then added into anti-HLA E antibody coated plate (2 μg/ml) and incubated for 1 hour. After washing three times with 1% BSA PBS, HRP-Avidin (Biolegend #405103, 1:1000) was used to detect bound biotinylated leader peptide.
A conformation capture of canonical/non-canonical peptide (C3N) method to HLA-E is designed to test predicted HLA-E binding peptides. HLA-E canonical and nominal peptides predicted from the python algorithm of Igepredict program and any 9 to 12-mer made collinearly with an overlapping IgE sequence can be tested by a binding assay. […] The assay for intact re-natured conformation of HLA-E is dependent on gaining the binding signal using anti-HLA-E coated plate to capture re-natured HLA-E in the presence of beta 2 microglobulin and leader peptides.

HLA-E [5] = test: Surface HLA-E expression in PBMCs (FACS); format: cell-based, human; conditions: anti-CD3 coated plate, 4 days
Description: (§2) FIG. 6. Modulation of surface HLA-G and HLA-E expression in PBMCs in present of interferon-β. Fresh buffy coat was obtained from San Diego blood blank. PBMCs (peripheral blood mononuclear cells) were isolated by density gradient centrifugation with Histopague-1077 (Sigma). 5×10^5 of PBMCs were seeded in anti-CD3 (10 μg/ml) coated 96 wells-plate and treated with interferon-I3 for 4 days. Cells were collected and stained with fluorescence-conjugated antibody; Alexa Fluor 488-conjugated anti-human CD8a (Biolegend), Pacific Blue-conjugated human CD4, APC-Cy7-conjugated human CD19 and PE conjugated-HLA-E or PE-Cy 7 conjugated HLA-G (Panel A) or HLA-E (Panel B), followed by fixation with 2% paraformaldehyde. Phenotype and HLA-E or HLA-G (Biolegend) expression were performed by using a FACS, LRSII flow cytometry and the data were processed as describe above.

HLA-E [6] = test: Surface HLA-E expression in immature MoDC cells (FACS); format: cell-based, human; conditions: 100 nM SR11237, 100 nM Bexarotene or Interferon-β 1,000 U, 4 days
Description: FIG. 5. […] MoDCs were then collected and stained with fluorescence-conjugated antibody; APC-conjugated anti-CD83 (Biolegend) and PE-conjugated HLA-E (Biolegend) followed by fixation with 2% paraformaldehyde. Phenotype and HLA-E expression of MoDCs were performed by using a FACS, LRSII flow cytometry and the data were processed by using the Flowjo software.

HLA-G = test: Surface HLA-G expression in PBMCs (FACS); format: cell-based, human; conditions: anti-CD3 coated plate, 4 days
Description: as §2

Substance: O′me/G/O′me/ACUUGGGAGGAAGAAAUUU-3′ (siRNA; 2'-O-methyl at sense 5' end, DNA at antisense positions 1 and 8, further chemistry not given here; listed as Homo sapiens) [Derlin siRNA #3]
- Derlin-1 mRNA knockdown (KD) (Derlin-1 mRNA [1]; 5 nM siRNA, Day 1): 62%
- Derlin-1 mRNA knockdown (KD) (Derlin-1 mRNA [1]; 5 nM siRNA, Day 2): 37%
- Derlin-1 mRNA knockdown (KD) (Derlin-1 mRNA [1]; 10 nM siRNA, Day 1): 41%
- Derlin-1 mRNA knockdown (KD) (Derlin-1 mRNA [1]; 10 nM siRNA, Day 2): 33%
- Derlin-1 mRNA knockdown (KD) (Derlin-1 mRNA [2]; T2, 1 nM siRNA, 6 Hours): 59%
- Derlin-1 mRNA knockdown (KD) (Derlin-1 mRNA [2]; T2, 2 nM siRNA, 6 Hours): 33%
- Derlin-1 mRNA knockdown (KD) (Derlin-1 mRNA [2]; T2, 4 nM siRNA, 6 Hours): 28%
- Derlin-1 mRNA knockdown (KD) (Derlin-1 mRNA [2]; T2, 8 nM siRNA, 6 Hours): 17%

Substance: VMAPRTLLL (VMAPRTLVL; listed as Homo sapiens) [A 2 leader peptide, reference compound]
- surface expression of HLA-E in T2 cells (HLA-E [3]): enhanced surface expression

Substance: TMTLPATTL (listed as Homo sapiens) [E33]
- surface expression of HLA-E in T2 cells (HLA-E [3]): stronger upregulation

Substance: NPRKVTAYL (also: biotin, place not given here; listed as Homo sapiens) [HLA-E leader peptide]
- increment of HLA-E binding signal (HLA-E [4]; leader peptide 1.0 μg/ml versus 0.1 μg/ml): ~10 fold and ~15 fold
- HLA-E binding signal (ELISA) (HLA-E [4]; leader peptide addition at 0.1 μg/ml): around 0.02 OD

Substance: Interferon β
- HLA-E expression in CD4+ T cells (HLA-E [5]): decrease
- HLA-E expression in CD8+ T cells (HLA-E [5]): decrease
- HLA-E expression in CD19+ cells (HLA-E [5]): increased
- HLA-E expression of immature MoDC cells (HLA-E [6]): increasing intense expression
- expression of HLA-G in CD4+ T cells (HLA-G): about two-fold
- expression of HLA-G in CD8+ T cells (HLA-G): about two-fold
- expression of HLA-G in CD19+ cells (HLA-G): increased

Substance: 5′-GAGGCCAGCAGACUAUUUAUU-3′ [Derlin siRNA #1]
- Derlin-1 mRNA knockdown (KD) (Derlin-1 mRNA [1]; 25 nM siRNA, Day 1): 36%
- Derlin-1 mRNA knockdown (KD) (Derlin-1 mRNA [1]; 50 nM siRNA, Day 1): 30%
- Derlin-1 mRNA knockdown (KD) (Derlin-1 mRNA [2]; T2, 5 nM siRNA, Day 1): 32%
- Derlin-1 mRNA knockdown (KD) (Derlin-1 mRNA [2]; T2, 5 nM siRNA, Day 2): 19%
- Derlin-1 mRNA knockdown (KD) (Derlin-1 mRNA [2]; T2, 10 nM siRNA, Day 1): 50%
- Derlin-1 mRNA knockdown (KD) (Derlin-1 mRNA [2]; T2, 10 nM siRNA, Day 2): 10%
- Derlin-1 mRNA knockdown (KD) (Derlin-1 mRNA [2]; T2, 20 nM siRNA, Day 1): 25%
- Derlin-1 mRNA knockdown (KD) (Derlin-1 mRNA [2]; T2, 20 nM siRNA, Day 2): 29%
